US5270186A, “Antitumor antibiotic BMY-42448” (Bristol-Myers Squibb Company, priority 1991, dated 1993)
In brackets after ≈: the same amount, converted by molar mass.

Tests used:
P388 tumor = experiment: iv-implanted P388 tumor model; format: in vivo, murine (CDF1 female mice)
Description: BMY-42448 was tested in an iv-implanted P388 tumor model. In this model 1×10^6 cells are implanted intravenously in CDF1 female mice. […] Mitomycin C given iv once at 3.2 mg/kg on the day after tumor implant extended median survival to 12 days after tumor implant. BMY-42448 was toxic when administered iv at 10 mg/kg every other day for 3 doses beginning one day after tumor implant.

B-16 melanoma = experiment: In vitro cytotoxicity, crystal violet staining; format: cell-based, murine; details: for IC50: Mus musculus, B16, 72 h, B-16 melanoma, 3 days with drug
Description: (§1) A 150 μl aliquot of culture media containing 3750 cells was plated into each well of a 96 well microtiter plate on day 0 and allowed to attach by incubation for 24 hours at 37° C. in a 5% carbon dioxide atmosphere. Drugs were then added to the top row of the wells and serially diluted down the plate (except for the untreated control column on each plate). The cells and drug were incubated together as above for 3 days. Following incubation, dead unattached cells and media were removed by inverting the plate. Cells that are undamaged by the drug remain attached to the plate. […] The fixing solution was removed by inverting the plate and the plates were air-dried.

P388 murine leukemia = experiment: In vivo P388 murine leukemia model, ip implant / ip treatment; set-up: species or system murine (CDF1 female mice); details: for median survival time: untreated controls 10 days
Description: (§2) BMY-42448 was also tested in vivo in the P388 murine leukemia model. When 1×10^6 leukemia cells are implanted ip into CDF1 female mice, the median survival time for untreated controls was 10 days. […] Mice treated with 45 or 15 mg/kg BMY-42448 on the same schedule had median survival time of 13.5 and 13 days, respectively. Each drug treatment group consisted of 4 mice. The positive control reference drug, olivomycin A, was dosed at 0.4 and 0.2 mg/kg once a day for 5 days beginning one day after implant, with median survival times of 16.5 and 16 days, respectively. Both drugs were administered via the intraperitoneal route. Thus, BMY-42448 was active in the ip/ip P388 model with a maximum tolerated dose of 45 mg/kg.

[1] = as above; set-up: species or system murine (CDF1 female mice); details: mouse, p388 leukemia model; ip once a day for 5 days; read-out: maximum tolerated dose
Description: as §2

HCT-116 colon = experiment: In vitro cytotoxicity, crystal violet staining; format: cell-based, human; details: for IC50: Homo sapiens, 72 h, HCT-116 colon, 3 days with drug
Description: as §1

Compound	median life span (P388 tumor; 1.25 mg/kg iv every other day for 3 doses, untreated control 8 days)	median life span (P388 tumor; 2.5 mg/kg iv every other day for 3 doses, untreated control 8 days)	median life span (P388 tumor; 5 mg/kg iv every other day for 3 doses, untreated control 8 days)	toxicity (P388 tumor; 10 mg/kg iv every other day for 3 doses beginning one day after tumor implant)	activity in iv-implanted P388 model (P388 tumor; 5, 2.5 or 1.25 mg/kg iv every other day for 3 doses)	IC50 (B-16 melanoma)	activity on the B-16 melanoma cell line compared with reference drug (B-16 melanoma; compared with cisplatin)	median survival time (P388 murine leukemia; 15 mg/kg ip once a day for 5 days)	median survival time (P388 murine leukemia; 45 mg/kg ip once a day for 5 days)	outcome (drug toxicity) (P388 murine leukemia; 135 mg/kg ip once a day for 5 days beginning 1 day after tumor implant)	activity in the ip/ip P388 model (P388 murine leukemia; ip implant, ip treatment)	MTD [1]	IC50 (HCT-116 colon)	activity on the HCT-116 colon cancer line compared with reference drug (HCT-116 colon; compared with mitomycin C)	median survival (P388 tumor; 3.2 mg/kg iv once on the day after tumor implant, untreated control 8 days)	median survival time (P388 murine leukemia; 0.2 mg/kg ip once a day for 5 days)	median survival time (P388 murine leukemia; 0.4 mg/kg ip once a day for 5 days)
CCC1CC23OC(=O)C(=C2O)C(=O)C2(CC)C(C=CC4C(OC5CC(O)C(NC(=O)c6[nH]c(Cl)cc6Cl)C(C)O5)C(C)CCC42)CC=CCC=CC3(C)C=C1C(=O)O (stereo not shown) [BMY-42448]	8 days	8 days	8 days	toxic	inactive	16 µg/mL (≈ 19 µM)	equal to that of cisplatin	13 days	13.5 days	died of drug toxicity	active	45 mg/kg	0.25 µg/mL (≈ 0.297 µM)	equivalent to that of mitomycin C			
CO[C@@]12[C@H](COC(N)=O)C3=C(C(=O)C(C)=C(N)C3=O)N1C[C@@H]1N[C@@H]12 [Mitomycin C, reference compound]						0.98 µg/mL (≈ 2.93 µM)							0.25 µg/mL (≈ 0.748 µM)		12 days		
olivomycin A [reference compound]																16 days	16.5 days
